Data as given in patent US20180185332A1, “Leukotriene Receptor Antagonists and Their Derivatives for Use as Antibacterial Agents” (University of East London, priority 2013, published 2018).
Converted amounts (≈) assume the structure as drawn.

Columns and labels:
MRSA = test: Minimum inhibitory concentration (MIC) in broth; assay type: cell-based, methicillin resistant Staphylococcus aureus; settings: Staphylococcus aureus, 10^5 cfu/mL, overnight at 37° C., no visible growth
Procedure: (§1) Zafirlukast (Sigma Aldrich, UK) was resuspended in Dimethyl Sulfoxide to a concentration of 16 mM. A minimum inhibitory concentration (MIC) was conducted using various bacterial broth solutions containing between the 0 and 4 mM zafirlukast. 10^5 cfu/mL of test organism was added to each tube before incubation overnight at 37° C. The MIC was taken to be the concentration at which no visible growth was observed. In addition, zone inhibition studies were carried out using standard techniques.
(§2) The bacterial species tested included Staphylococcus aureus, methicillin resistant Staphylococcus aureus, Enterococcus faecalis, Bacillus subtilis, Streptococcus pneumoniae, and Clostridium difficile.
(§3) MIC is well known to the skilled person and is defined as the lowest concentration of agent which prevents visible growth of the bacterial strain under investigation.

Staphylococcus aureus = test: Minimum inhibitory concentration (MIC) in broth; assay type: cell-based; settings: 10^5 cfu/mL, overnight at 37° C., no visible growth
Procedure: as §1, §2, §3

Bacillus subtilis = test: Minimum inhibitory concentration (MIC) in broth; assay type: cell-based; settings: 10^5 cfu/mL, overnight at 37° C., no visible growth
Procedure: as §1, §2, §3

Mycobacterium smegmatis = settings: Pinault et al 2013; cited from earlier work
Lsr2 = Lsr2 (Mycobacterium tuberculosis, UniProt P9WIP7); settings: Pinault et al 2013; cited from earlier work
E. coli = settings: Pinault et al 2013; cited from earlier work
[1] = tested on: Mycobacterium tuberculosis; settings: Pinault et al 2013; cited from earlier work
[2] = in vivo, po; cited from earlier work
B. subtilis = test: Bactericidal activity, viable counts (percentage survival); assay type: cell-based; settings: 3 hrs at 37° C., FIG. 2
Procedure: (§4) 10^5 cfu/mL of bacterial culture was incubated in the presence of various concentrations of zafirlukast for a period of 3 hrs at 37° C. At the end of this incubation, viable counts were taken and results recoded as percentage survival (as compared to the drug free control).

S. aureus = test: as above; assay type: cell-based; settings: 3 hrs at 37° C., FIG. 2
Procedure: as §4

| SMILES | MIC (MRSA) | MIC (Staphylococcus aureus) | MIC (Bacillus subtilis) | bactericidal activity against M. smegmatis (Mycobacterium smegmatis) | growth of Mycobacterium smegmatis (Mycobacterium smegmatis) | complexation of Lsr2 with DNA (Lsr2) | effect on the growth of E. coli (E. coli) | growth of Mycobacterium tuberculosis [1] | plasma half-life [2] | bactericidal activity (B. subtilis) | bactericidal activity (S. aureus) |
| --- | --- | --- | --- | --- | --- | --- | --- | --- | --- | --- | --- |
| CO/N=C(\C(=O)N[C@@H]1C(=O)N2C(C(=O)O)=C(CSc3nc(=O)c(=O)[nH]n3C)CS[C@H]12)c1csc(N)n1 [Ceftriaxone] | 22 µM (≈ 12.2 µg/mL) | 2 µM (≈ 1.11 µg/mL) | > 29 µM | – | – | – | – | – | – | – | – |
| O=C(O)c1cn(C2CC2)c2cc(N3CCNCC3)c(F)cc2c1=O [Ciprofloxacin] | 40 µM (≈ 13.3 µg/mL) | 3 µM (≈ 0.994 µg/mL) | > 12 µM | – | – | – | – | – | – | – | – |
| COc1cc(C(=O)NS(=O)(=O)c2ccccc2C)ccc1Cc1cn(C)c2ccc(NC(=O)OC3CCCC3)cc12 [Zafirlukast, [3-[2-Methoxy-4-(toluene-2-sulfonylaminocarbonyl)benzyl]-I-methyl-IH-indol-5-yl]carbamic acid cyclopentyl ester] | 6 µM (≈ 3.45 µg/mL) | 30 µM (≈ 17.3 µg/mL) | 6 µM (≈ 3.45 µg/mL) | exhibits bactericidal activity | inhibits the growth | inhibits the complexation | no effect | inhibits the growth | approximately 10 hours | bactericidal activity | bactericidal activity |
